Consider three compounds from US20160262923A1, “INTRAUTERINE DELIVERY SYSTEM” (BAYER OY, priority 2013, published 2016).

In one series the test system is Uterine bleeding. Put plainly: Comparison study in monkey, IUS vehicle vs LNG vs NP, uterine bleeding. Format: in vivo, cynomolgus macaques. The note with it: for number of bleeding days: first 7 days after insertion neglected. As for the experimental part:
Animal Treatments: Adult cycling cynomolgus macaques were monitored to record regular menstrual cycles. Uterine bleeding was assessed daily by vaginal swabs (for sporadic vaginal spotting) and menstrual blood loss by vaginal tampons. After 2 menstrual cycles (˜60 days), the animals were assigned to treatment groups and laparotomized between days 6-8 (ideally day 7) of the follicular phase and an IUS was inserted by hysterotomy into the uterine lumen and sutured in place. Treatment IUS was as follows (n=5-6/group): • Group 1: Vehicle IUS • Group 2: 2 μg/day LNG • Group 3: 5 μg/day LNG • Group 4: 2 μg/day NP • Group 5: 5 μg/day NP Classification of bleeddings: Bleedings were grouped in three categories: a) positive swap or frank menses, which is the most heavy form of bleeding (BB, red colour), b) light positive swab, which is an intermediated type of bleeding (B, purple colour) and c) spot positive swab, which is a very light form of bleeding (S, orange colour). For evaluation of bleeding days, the first 7 days after insertion of the IUS were neglected, because the surgical insertion procedure already causes some bleedings in these days, which is unrelated progestin effects. FIGS. 2 and 3 and Tables 1 and 2 illustrate a comparison of 2 μg/d LNG release with 5 μg/d LNG release for 80 days with the IUS for each animal.

The subject of a further series is uterine horn. Put plainly: Weight gain of IUS-carrying uterine horn in ovary-resected rats. It is filed as in vivo. As to conditions: E2 treated, IUS (rod) in right uterine horn. The method, then:
The local uterine action of the a.m. progestin compared to systemic side effects (dissociation) was investigated on the basis of studies using rats (see Example 4; FIGS. 4 to 6). The uterus of ovary-resected rats responded to implantation of progestin-containing IUS (rods) with decidualization and weight gain. The local progestin effects were also determined on the basis of changes in gene expression. […] The left uterine horn remained untreated for internal comparison.

Another series has as its system IGFBP-1, Cyp26a1. Put plainly: Gene expression analysis of uterine tissue after IUS (rods) in rats. Format: in vivo. As to conditions: local administration by IUS (rods) in rats, identical release rates. The method, then:
The left uterine horn remained untreated for internal comparison.
The uterine tissue was homogenized in 800 μl of RLT lysis buffer (Qiagen, Hilden, Germany; #79216) using a Precellys24 homogenizer (Peqlab, Erlangen, Germany; 2.8 mm ceramic beads; #91-PCS-CK28, 2×6000 rpm). 400 μl of the homogenate obtained were used for isolating total RNA, using the QlAsymphony RNA kit (Qiagen, #931636) on a QlAsymphony SP robot for automated sample preparation. Reverse transcription of from 1 μg to 4 μg of total RNA was carried out using the SuperScript III first-strand synthesis system (Invitrogen, Carlsbad, USA; #18080-051) according to the random hexamer procedure.
Gene expression analysis was carried out with from 50 ng to 200 ng of cDNA per reaction on an SDS7900HT Real.time PCR system (Applied Biosystems, Carlsbad, USA) using TaqMan probes (Applied Biosystems; IGFBP-1 Rn00565713_m1, Cyp26a1 Rn00590308_m1, PPIA Rn00690933_m1) and the Fast Blue qPCR MasterMix Plus (Eurogentec, Liege, Belgium; #RT-QP2X-03+FB). For relative quantification, cyclophilin A (PPIA) was used as an endogenous control. Relative expression levels were calculated according to the comparative delta delta CT method.

The nature of series [1]: Progestational activity compared to LNG.
The conditions of series [2]: in vivo.
The mark [3] stands for this setting: release rate 2 μg/d, total of 6 test animals.
[4] abbreviates: release rate 5 μg/d, total of group (LNG: 5 test animals).

As to `C#C[C@]1(O)CC[C@H]2[C@@H]3CCC4=CC(=O)CC[C@@H]4[C@H]3CC[C@@]21CC` [LNG, levonorgestrel, reference compound], the “number of bleeding days” value with Uterine bleeding (setting [3]) is 24 days; in the series on Uterine bleeding (setting [4]), 4 days.

With `CC[C@]12CC[C@H]3[C@@H](CCC4=CC(=O)CC[C@@H]43)[C@@H]1[C@@H]1C[C@@H]1[C@@]21CCCO1` [compound A, 18-methyl-15β,16β-methylene-19-nor-20-spirox-4-en-3-one], in the series on Uterine bleeding (2 μg/d NP versus 2 μg/d LNG), the “bleeding reduction compared to LNG” value is recorded as “higher bleeding reduction”. Besides, the “bleeding compared to vehicle IUS group” value in the series on Uterine bleeding (2 μg/d release group) and in the series on Uterine bleeding (5 μg/d release group) was “marked reduction of bleeding” each time. Besides, the “number of bleeding days” value in the series with Uterine bleeding (setting [3]) is 4 days; with Uterine bleeding (setting [4]), “No bleeding”. In addition, the “local efficacy by way of weight gain in the IUS-carrying uterine horn” value in the series on uterine horn is given as “dose-dependent local efficacy”. Moreover, the “potency in inducing gene expression relative to levonorgestrel” value in the series with IGFBP-1, Cyp26a1 is 4- to 7 fold. Also, the “progestional activity compared to LNG” value in series [1] is on record as “higher progestional activity”. In addition, the break-down rate entry in series [2] was “very fast break-down rate”. In series [2], the “systemic stability / plasma clearance compared to LNG” value was “low systemic stability/higher plasma clearance”.

Consider `CC[C@]12CCC3C4CCC(=O)C=C4C4CC4C3C1[C@@H]1C[C@@H]1[C@@]21CCCO1` (stereo partly drawn) [compound B, 18-methyl-6α,7α,15β,16β-dimethylene-19-nor-20-spirox-4-en-3-one], for which the “local efficacy by way of weight gain in the IUS-carrying uterine horn” value in the series on uterine horn is reported as “dose-dependent local efficacy”. For the same compound, in series [2], the break-down rate result was “very fast break-down rate”.
